Data: ChEMBL document CHEMBL1201862, “PubChem BioAssay data set” (2004)
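48-hour exposure; five concentrations; linearly interpolated endpoints. GI50 = concentration required for 50% inhibition of growth.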 Activity calls are given as the source filed them. Rule as the data show it: active = GI50 up to about 1.1 µM and inactive = higher.

Key:
Assay in all cases: NCI tumour cell line growth inhibition, 48 h
BT-549 = system: BT-549
OVCAR-8 = system: OVCAR-8
CAKI-1 = system: CAKI-1
PC-3 = system: PC-3
Hs-578T = system: Hs-578T
OVCAR-4 = system: OVCAR-4
U-251 = system: U-251
TK-10 = system: TK-10
SK-MEL-5 = system: SK-MEL-5
SR = system: SR
NCI/ADR-RES = system: NCI/ADR-RES
HCT-116 = system: HCT-116
SK-OV-3 = system: SK-OV-3
Malme-3M = system: Malme-3M
HCC 2998 = system: HCC 2998
SN12C = system: SN12C
UO-31 = system: UO-31
HT-29 = system: HT-29
T47D = system: T47D

Measured: GI50

CC(=O)OCC1OC(N2C(=O)/C(=C\c3ccc(Cl)cc3)C(N)=Nc3ccccc32)C(OC(C)=O)C(OC(C)=O)C1OC(C)=O (configuration not stated)
inactive: BT-549 27.9 µM | OVCAR-8 13.8 µM | CAKI-1 37.3 µM | PC-3 20.6 µM | Hs-578T 28.4 µM | OVCAR-4 20.4 µM | U-251 14.6 µM | TK-10 28.1 µM | SK-MEL-5 12.7 µM | SR 16.4 µM | NCI/ADR-RES 51.1 µM | HCT-116 16.6 µM | SK-OV-3 51.1 µM | Malme-3M 28.2 µM | HCC 2998 16.1 µM | SN12C 29.2 µM | UO-31 20.7 µM | HT-29 25.7 µM | T47D 12.4 µM

NNC(=O)CNc1cccc(Br)c1
inactive: BT-549 > 100 µM | OVCAR-8 > 100 µM | CAKI-1 > 100 µM | PC-3 > 100 µM | Hs-578T > 100 µM | OVCAR-4 > 100 µM | U-251 > 100 µM | TK-10 > 100 µM | SK-MEL-5 > 100 µM | SR > 100 µM | NCI/ADR-RES > 100 µM | HCT-116 > 100 µM | SK-OV-3 > 100 µM | Malme-3M > 100 µM | HCC 2998 > 100 µM | SN12C > 100 µM | UO-31 > 100 µM | HT-29 > 100 µM | T47D > 100 µM

Nc1nc(NCC2(CO)CC(CCc3ccccc3)C2)cc(=O)[nH]1 (configuration not stated)
inactive: BT-549 > 100 µM | OVCAR-8 > 100 µM | CAKI-1 > 100 µM | PC-3 > 100 µM | Hs-578T > 100 µM | OVCAR-4 > 100 µM | U-251 > 100 µM | SK-MEL-5 > 100 µM | SR > 100 µM | NCI/ADR-RES > 100 µM | HCT-116 > 100 µM | SK-OV-3 22.2 µM | Malme-3M > 100 µM | HCC 2998 > 100 µM | SN12C > 100 µM | UO-31 18.2 µM | HT-29 > 100 µM | T47D 27.8 µM

Cc1nc(N)c(N2CCNCC2)c(O)n1
inactive: BT-549 > 100 µM | OVCAR-8 > 100 µM | PC-3 > 100 µM | Hs-578T > 100 µM | U-251 > 100 µM | TK-10 > 100 µM | SR > 100 µM | NCI/ADR-RES > 100 µM | HCT-116 > 100 µM | Malme-3M > 100 µM | HCC 2998 > 100 µM | SN12C > 100 µM | UO-31 > 100 µM | HT-29 > 100 µM | T47D > 100 µM

CC(C)(C)C1CCC(=O)/C(=C/CC2CC(=O)N(c3ccccc3)C(=O)C2)C1 (configuration not stated)
inactive: BT-549 20.4 µM | OVCAR-8 19.8 µM | CAKI-1 20.9 µM | PC-3 27.5 µM | Hs-578T 33.1 µM | OVCAR-4 32.7 µM | U-251 14.9 µM | TK-10 17.5 µM | SK-MEL-5 16.4 µM | SR 10.3 µM | NCI/ADR-RES 17.8 µM | HCT-116 14.8 µM | Malme-3M 18.6 µM | HCC 2998 23.8 µM | SN12C 17.5 µM | UO-31 16.6 µM | HT-29 19.8 µM | T47D 21.8 µM

COCCN1C(=O)C2c3[nH]c4ccccc4c3C3CCC(C(C)(C)C)CC3C2C1=O (configuration not stated)
inactive: BT-549 18.8 µM | OVCAR-8 20.7 µM | CAKI-1 23.1 µM | PC-3 13.4 µM | Hs-578T 17.2 µM | OVCAR-4 16.9 µM | U-251 15.5 µM | TK-10 > 10 µM | SK-MEL-5 17 µM | SR 11.7 µM | NCI/ADR-RES 17.4 µM | HCT-116 16.4 µM | SK-OV-3 20.2 µM | HCC 2998 19.3 µM | SN12C 17.1 µM | UO-31 13.9 µM | HT-29 13.2 µM | T47D 20 µM

Cn1c(=O)c2c(nc3n2CCCC(=O)N3CC(O)CCl)n(C)c1=O (configuration not stated)
inactive: BT-549 > 100 µM | OVCAR-8 > 100 µM | CAKI-1 > 100 µM | PC-3 > 100 µM | Hs-578T > 100 µM | OVCAR-4 > 100 µM | U-251 > 100 µM | TK-10 > 100 µM | SK-MEL-5 > 100 µM | SR 50.1 µM | NCI/ADR-RES > 100 µM | HCT-116 > 100 µM | SK-OV-3 > 100 µM | HCC 2998 > 100 µM | SN12C > 100 µM | UO-31 > 100 µM | HT-29 > 100 µM | T47D > 100 µM

OCC1OC(NC(=S)NCSCCC(F)(F)C(F)(F)C(F)(F)C(F)(F)C(F)(F)C(F)(F)F)C(O)C(O)C1O (configuration not stated)
inactive: BT-549 > 100 µM | CAKI-1 76 µM | PC-3 33.6 µM | Hs-578T 33.5 µM | OVCAR-4 > 100 µM | U-251 17.5 µM | TK-10 49.7 µM | SK-MEL-5 > 10 µM | SR 49.3 µM | NCI/ADR-RES > 100 µM | HCT-116 34.4 µM | SK-OV-3 82 µM | Malme-3M 73.8 µM | HCC 2998 43.8 µM | SN12C 60 µM | UO-31 > 100 µM | HT-29 34.2 µM | T47D > 100 µM

CCOC(=O)c1ccc(Nc2nc3ccccc3n3cccc23)cc1
inactive: BT-549 > 100 µM | OVCAR-8 47.8 µM | CAKI-1 > 100 µM | PC-3 36.6 µM | Hs-578T 42.9 µM | U-251 28.4 µM | TK-10 34.8 µM | SK-MEL-5 66.8 µM | SR 8.97 µM | NCI/ADR-RES 38.1 µM | HCT-116 > 100 µM | SK-OV-3 27.4 µM | Malme-3M > 100 µM | HCC 2998 35 µM | SN12C 12.8 µM | UO-31 > 100 µM | HT-29 36.7 µM | T47D 9.57 µM

O=C1OCC2OC(=O)c3cc(O)c(O)c(O)c3-c3c(O)c(O)c(O)c4c3C(=O)OC(C2OC(=O)c2cc(O)c(O)c(O)c2-c2c1cc(O)c(O)c2O)C1OC(=O)c2c-4c(O)c(O)c(O)c2[C@@H]1C(O)C(O)C(O)C(O)CO (some centres not stated)
inactive: BT-549 22.8 µM | OVCAR-8 23.3 µM | CAKI-1 13.6 µM | PC-3 20.7 µM | Hs-578T 27.9 µM | OVCAR-4 16.6 µM | U-251 20.4 µM | SK-MEL-5 14.1 µM | SR 22.5 µM | NCI/ADR-RES 22.2 µM | HCT-116 16.2 µM | SK-OV-3 27.4 µM | Malme-3M 18.1 µM | HCC 2998 21.6 µM | SN12C 16 µM | UO-31 17.8 µM | HT-29 14.4 µM | T47D 19.1 µM

C#C/C=C/CC1OC(C(Br)CC)CC(Br)C2CC1O2 (configuration not stated)
inactive: BT-549 38.9 µM | OVCAR-8 61.1 µM | CAKI-1 > 100 µM | PC-3 45.6 µM | Hs-578T 87.9 µM | OVCAR-4 37.8 µM | U-251 78 µM | TK-10 > 100 µM | SK-MEL-5 89.3 µM | SR 34.6 µM | NCI/ADR-RES 19.1 µM | HCT-116 30.6 µM | SK-OV-3 40.9 µM | Malme-3M 11.3 µM | HCC 2998 56 µM | SN12C 63.7 µM | HT-29 42.6 µM | T47D 75.3 µM
